From patent US20260256792A1, “TREATMENT OF CHRONIC SPONTANEOUS URTICARIA BY ADMINISTERING (R)-2-[3-[4-AMINO-3-(2-FLUORO-4-PHENOXY-PHENYL)PYRAZOLO[3,4-D]PYRIMIDIN-1-YL]PIPERIDINE-1-CARBONYL]-4-METHYL-4-[4-(OXETAN-3-YL)PIPERAZIN-1-YL]PENT-2-ENENITRILE” (priority 2023, published 2026)

Tested on: moderate-to-severe chronic spontaneous urticaria (CSU)
Test: Phase 2 CSU study: urticaria activity score over 7 days (UAS7)
Format: in vivo, human
Parameters: key to UAS7 Median / UAS7 Change from baseline Median / UAS7 change from baseline, Q1 / UAS7 change from baseline, Q3 / UAS7 change from baseline, Max / UAS7 Change from baseline LS Mean (SE): UAS7 points; daily UAS score ranges 0–6 points/day, over 7 days
Description: The study comprises a 12 week, randomized, double-blind, placebo-controlled, multi-center, dose-ranging efficacy and safety phase, followed by a 40 week open label extension (OLE) phase (see FIG. 1). The study consists of three phases and an optional OLE phase. […] Clinically, CSU is characterized by the spontaneous and recurrent appearance of pruritic hives. The proposed primary endpoints were the UAS7 at Week 12 in EU and EU reference countries and the ISS7 in the US. Regardless of where a participant was from, all assessments were the same. The UAS7 score is a composite score containing both the HSS7 and the ISS7. This allowed a global assessment of the two key components of urticaria: hives and itch. […] The UAS is a validated PRO measure. […] The daily UAS scores range from 0 to 6 point/day. […] Patients were to complete the UAS using the e-diary. […] The following secondary endpoints were to be analyzed using the same approach as for the primary endpoint: • Change from baseline in UAS7 at Week 4 • Change from baseline in UAS7 at Week 12 (for US and US reference countries) • Change from baseline in ISS7 at Week 12 (except US and US reference countries) • Change from baseline in HSS7 at Week 12 The following responder secondary endpoints were to be analyzed using the Cochran-Mantel-Haenszel test adjusted by region: • Proportion of participants with UAS7<6 at Week 12 • Proportion of participants with UAS7=0 at Week 12 Participants who received selected prohibited medications and/or rescue medications were to be considered as non-responders for time points after the medication usage. For other participants, all available data including those collected during the off-treatment period were to be used to determine the responder/non-responder status. Missing data were to be considered as non-responders.

[1] = Week 3, 400 mg TID, Omalizumab-Naïve
[2] = Week 3, 400 mg TID, Prior Omalizumab Use
[3] = Week 3, 400 mg TID, omalizumab-naive participants
[4] = Week 4, 400 mg BID, ITT population
[5] = Week 4, 400 mg BID, Omalizumab-Naïve
[6] = Week 4, 400 mg BID, Prior Omalizumab Use
[7] = Week 4, 400 mg BID, omalizumab-naive participants
[8] = Week 4, 400 mg QPM, ITT population
[9] = Week 4, 400 mg QPM, Omalizumab-Naïve
[10] = Week 4, 400 mg QPM, Prior Omalizumab Use
[11] = Week 4, 400 mg QPM, omalizumab-naive participants
[12] = Week 4, 400 mg TID, ITT population
[13] = Week 4, 400 mg TID, Omalizumab-Naïve
[14] = Week 4, 400 mg TID, Prior Omalizumab Use

## CC(C)(C=C(C#N)C(=O)N1CCC[C@@H](n2nc(-c3ccc(Oc4ccccc4)cc3F)c3c(N)ncnc32)C1)N1CCN(C2COC2)CC1 [rilzabrutinib, (R)-2-[3-[4-amino-3-(2-fluoro-4-phenoxy-phenyl)pyrazolo[3,4-d]pyrimidin-1-yl]piperidine-1-carbonyl]-4-methyl-4-[4-(oxetan-3-yl)piperazin-1-yl]pent-2-enenitrile]
[1]
  UAS7 Percent change from baseline Mean (SD): −48.87 (33.07) %
  UAS7 Percent change from baseline Median: −48.08%
[2]
  UAS7 Change from baseline Mean (SD): −24.14 (11.99)
  UAS7 Change from baseline Median: −24.50
  UAS7 Median: 7.67
  UAS7 Percent change from baseline Mean (SD): −71.37 (19.75) %
  UAS7 Percent change from baseline Median: −64.58%
[3]
  Non-responder, UAS7 reduction from baseline of 10 points or more: 14 (40.0) n (%)
  OR for rilzabrutinib vs. placebo, UAS7 reduction of 10 points or more: 2.949
  RRD (%) for rilzabrutinib vs. placebo, UAS7 reduction of 10 points or more: 27.1 %
  Responder, UAS7 reduction from baseline of 10 points or more: 21 (60.0) n (%)
[4]
  Non-responder, UAS7 reduction from baseline of 10 points or more: 19 (46.3) n (%)
  OR for rilzabrutinib vs. placebo, UAS7 reduction of 10 points or more: 1.853
  RRD (%) for rilzabrutinib vs. placebo, UAS7 reduction of 10 points or more: 14.7 %
  Responder, UAS7 reduction from baseline of 10 points or more: 22 (53.7) n (%)
[5]
  UAS7 Change from baseline Mean (SD): −13.49 (10.97)
  UAS7 Change from baseline Median: −11.00
  UAS7 Mean (SD): 15.92 (11.71)
  UAS7 Median: 14.00
  UAS7 Percent change from baseline Mean (SD): −46.55 (35.69) %
  UAS7 Percent change from baseline Median: −41.94%
[6]
  UAS7 Change from baseline Mean (SD): −21.80 (16.62)
  UAS7 Change from baseline Median: −26.00
  UAS7 Mean (SD): 13.60 (16.55)
  UAS7 Median: 3.00
  UAS7 Percent change from baseline Mean (SD): −62.33 (45.90) %
  UAS7 Percent change from baseline Median: −91.43%
[7]
  Non-responder, UAS7 reduction from baseline of 10 points or more: 17 (48.6) n (%)
  OR for rilzabrutinib vs. placebo, UAS7 reduction of 10 points or more: 2.046
  RRD (%) for rilzabrutinib vs. placebo, UAS7 reduction of 10 points or more: 16.8 %
  Responder, UAS7 reduction from baseline of 10 points or more: 18 (51.4) n (%)
[8]
  Non-responder, UAS7 reduction from baseline of 10 points or more: 23 (60.5) n (%)
  OR for rilzabrutinib vs. placebo, UAS7 reduction of 10 points or more: 1.224
  RRD (%) for rilzabrutinib vs. placebo, UAS7 reduction of 10 points or more: 4.4 %
  Responder, UAS7 reduction from baseline of 10 points or more: 15 (39.5) n (%)
[9]
  UAS7 Change from baseline Mean (SD): −9.18 (9.24)
  UAS7 Change from baseline Median: −7.00
  UAS7 Mean (SD): 21.92 (8.82)
  UAS7 Median: 21.00
  UAS7 Percent change from baseline Mean (SD): −27.91 (26.53) %
  UAS7 Percent change from baseline Median: −21.88%
[10]
  UAS7 Change from baseline Mean (SD): −23.00 (NC)
  UAS7 Change from baseline Median: −23.00
  UAS7 Mean (SD): 18.00 (NC)
  UAS7 Median: 18.00
  UAS7 Percent change from baseline Mean (SD): −56.10 (NC) %
  UAS7 Percent change from baseline Median: −56.10%
[11]
  Non-responder, UAS7 reduction from baseline of 10 points or more: 23 (62.2) n (%)
  OR for rilzabrutinib vs. placebo, UAS7 reduction of 10 points or more: 1.322
  RRD (%) for rilzabrutinib vs. placebo, UAS7 reduction of 10 points or more: 6.0 %
  Responder, UAS7 reduction from baseline of 10 points or more: 14 (37.8) n (%)
[12]
  Non-responder, UAS7 reduction from baseline of 10 points or more: 12 (29.3) n (%)
  OR for rilzabrutinib vs. placebo, UAS7 reduction of 10 points or more: 3.520
  RRD (%) for rilzabrutinib vs. placebo, UAS7 reduction of 10 points or more: 29.4 %
  Responder, UAS7 reduction from baseline of 10 points or more: 29 (70.7) n (%)
[13]
  UAS7 Change from baseline Mean (SD): −15.51 (9.79)
  UAS7 Change from baseline Median: −14.00
  UAS7 Mean (SD): 14.65 (9.61)
  UAS7 Median: 14.00
  UAS7 Percent change from baseline Mean (SD): −51.19 (29.70) %
  UAS7 Percent change from baseline Median: −51.09%
[14]
  UAS7 Change from baseline Mean (SD): −22.94 (13.84)
  UAS7 Change from baseline Median: −22.50
  UAS7 Mean (SD): 10.08 (10.62)
  UAS7 Median: 8.58
  UAS7 Percent change from baseline Mean (SD): −67.07 (27.75) %
